Experimental data as given in patent US7776859B2, “Hexahydroimidazopyrazin-3-one compounds useful as modulators of androgen receptor function” (Bristol-Myers Squibb Company, priority 2005, dated 2010).
pKd: −log10 of the molar value.

Legend:
[1] = biological target: T1, AR (Rattus norvegicus, UniProt P15207)
T1 sequence (P15207 1-902): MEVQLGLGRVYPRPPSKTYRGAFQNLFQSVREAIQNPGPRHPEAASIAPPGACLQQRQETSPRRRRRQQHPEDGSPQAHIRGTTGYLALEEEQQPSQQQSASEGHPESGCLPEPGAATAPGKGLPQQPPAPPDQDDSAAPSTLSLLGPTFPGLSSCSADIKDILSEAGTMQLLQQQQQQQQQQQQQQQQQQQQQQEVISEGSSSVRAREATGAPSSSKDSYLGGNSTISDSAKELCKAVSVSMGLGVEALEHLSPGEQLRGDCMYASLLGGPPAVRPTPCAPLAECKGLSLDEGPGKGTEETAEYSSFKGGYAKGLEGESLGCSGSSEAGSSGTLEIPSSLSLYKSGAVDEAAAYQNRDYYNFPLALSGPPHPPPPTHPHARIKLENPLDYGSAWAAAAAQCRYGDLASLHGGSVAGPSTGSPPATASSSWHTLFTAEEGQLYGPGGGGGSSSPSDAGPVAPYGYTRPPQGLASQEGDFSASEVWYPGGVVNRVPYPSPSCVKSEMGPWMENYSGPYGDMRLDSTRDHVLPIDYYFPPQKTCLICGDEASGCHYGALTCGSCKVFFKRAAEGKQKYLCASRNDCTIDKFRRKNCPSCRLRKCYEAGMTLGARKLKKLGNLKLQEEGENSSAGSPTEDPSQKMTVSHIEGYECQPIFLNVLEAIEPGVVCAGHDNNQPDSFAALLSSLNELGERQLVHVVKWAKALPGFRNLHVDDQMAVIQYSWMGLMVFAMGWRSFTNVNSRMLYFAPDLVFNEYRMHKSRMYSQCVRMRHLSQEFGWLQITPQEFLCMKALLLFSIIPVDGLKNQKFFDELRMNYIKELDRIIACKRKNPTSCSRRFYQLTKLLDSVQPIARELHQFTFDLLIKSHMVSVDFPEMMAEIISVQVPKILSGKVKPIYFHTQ

[2] = tested on: wild type AR (MDA 453 cells); conditions: read-out: Kd for [3H]-DHT; MDA 453 cells (wild type AR), Scatchard analysis of specific binding
Description: For the saturation analysis, the difference between the total binding and the non-specific binding, is defined as specific binding.
Two replicates are used for each sample. After 4 hours at 37° C., cells are washed, harvested, and counted as described above. […] The K1 values are determined by application of the Cheng-Prusoff equation to the IC50 values, where:
[formula] After correcting for non-specific binding, IC50 values are determined.

Compound | potency relative to free T ([1]; TP versus free T, organ weight increase) | EC50 (increase in organ weight, VP and SV) ([1]; immature castrated rats, dosed for 3 days) | pKd [2]
CCC(=O)O[C@H]1CC[C@H]2[C@@H]3CCC4=CC(=O)CC[C@]4(C)[C@H]3CC[C@]12C [TP, testosterone propionate] | 10-30 fold | ~0.03 mg | 
tritiated dihydrotestosterone [[^3H]-DHT] |  |  | 9.15
